Values of other authors as cited in patent US9233112B2, “Pharmaceutical compositions of cefixime” (LUPIN LIMITED, priority 2006, dated 2016).

In the case of `C=CC1=C(C(=O)O)N2C(=O)[C@@H](NC(=O)/C(=N\OCC(=O)O)c3csc(N)n3)[C@H]2SC1` [Cefixime], the Solubility in water is given as “poorly soluble in water”.
